# Data as given in patent publication US20200121704A1, “METHODS FOR TREATING HYPERTENSION AND ARTERIAL STIFFNESS” (THE REGENTS OF THE UNIVERSITY OF COLORADO, A BODY CORPORATE, priority 2017, published 2020).
# Legend:
# Type in all cases: in vivo, human
# [1] = test system: endothelin-1 (ET-1); test: Circulating endothelin-1 concentration; conditions: compared with placebo
# From the text: To gain potential insight into the underlying mechanisms by which nicotinamide riboside lowers blood pressure, we assessed plasma concentrations of endothelin-1 (ET-1), a potent vasoconstrictor that is released by the vascular endothelium to regulate vascular smooth muscle tone. […] Thus, nicotinamide riboside may lower blood pressure and arterial stiffness by suppressing ET-1-mediated vasoconstriction.
# [2] = Complete blood count (clinical laboratory values at end of each intervention phase)
# Protocol: (§1) Sixty subjects were consented for this study. This study was conducted in the Integrative Physiology of Aging Laboratory and the Clinical and Translational Research Center (CTRC) at the University of Colorado Boulder. All blood assays were performed at either Boulder Community Hospital or the University of Colorado Denver Anschutz Medical Campus CTRC Core Laboratory. All testing sessions were performed after an overnight fast and 24-hour abstention from exercise and alcohol consumption. All subjects refrained from all prescription medications for 24 hours and over the counter medications for 48 hours prior to all testing visits.
# (§2) Clinical laboratory values were obtained from blood samples collected at the end of each intervention phase in 21 subjects. Complete blood work was not obtained in three subjects due to a failed catheterization during at least one of the testing phases.
# [3] = Comprehensive metabolic panel (blood chemistry, renal function, liver enzymes)
# Protocol: as §1, §2
# [4] = test system: healthy middle-aged and older adults; test: Resting brachial artery blood pressure
# Protocol: Resting brachial artery blood pressure and heart rate were measured in the seated position after 5 minutes of rest in a quiet examination room using a semi-automated blood pressure device (DYNAMAP™ XL, Johnson & Johnson, Arlington, Tex., USA). Measurements were made multiple times from the non-dominant arm, with 2 minutes of quiet rest between recordings. Repeat measurements were made until 3 blood pressure values were obtained that were within 5 mmHg of one another. These values were then averaged to determine resting systolic and diastolic blood pressure, pulse pressure, mean arterial pressure, and resting heart rate. Baseline blood pressure values were obtained using the above-described protocol on two separate testing days prior to the initiation of the first intervention arm and were averaged to determine baseline blood pressure status (i.e., normotensive vs. pre-hypertensive) for subsequent analyses.
# To determine if this effect was greater in subjects with elevated baseline blood pressure, subjects were characterized as either normotensive (SBP <120 mmHg; DBP <80 mmHg) or pre-hypertensive (SBP 120-139 mmHg; DBP 80-89 mmHg) based on their average baseline blood pressure obtained on two separate days. The inventors observed a near significant interaction between treatment condition (NR vs. placebo) and blood pressure status for systolic blood pressure (FIG. 3A; P=0.07), with no effect on diastolic pressure (FIG. 3C), and […] on mean arterial pressure (FIG. 3E; P=0.08). […] Diastolic blood pressure also tended to be reduced in prehypertensive individuals; however this effect was lower in magnitude (3 mmHg reduction) and approached significance (FIG. 3D; P=0.09).
# [5] = NR condition, end of 6-week phase, mean ± SEM, 21 subjects
# [6] = NR condition, end of 6-week phase, mean ± SEM, 21 subjects, *P < 0.05 vs. placebo
# [7] = all subjects, NR condition compared with placebo, P<0.05
# [8] = pre-hypertensive individuals, P<0.01
structure (smiles),measurement,setting,value
"NC(=O)c1ccc[n+]([C@@H]2O[C@H](CO)[C@@H](O)[C@H]2O)c1 [NR, nicotinamide riboside]",Serum ET-1 concentrations,[1],lowers serum ET-1 concentrations
same,HCT,[2]; [5],41.1 ± 0.7%
same,HGB,[2]; [5],13.9 ± 0.2 g/dL
same,MCH,[2]; [5],31.2 ± 0.3 pg
same,MCHC,[2]; [5],33.8 ± 0.2 g/dL
same,MCV,[2]; [5],92.3 ± 0.9 fL
same,RBC,[2]; [5],4.5 ± 0.1 10^6/μL
same,RDW,[2]; [5],13.0 ± 0.2%
same,WBC,[2]; [5],4.3 ± 0.3 10^3/μL
same,basophils absolute,[2]; [5],0.05 ± 0.01 10^3/μL
same,eosinophils absolute,[2]; [5],0.14 ± 0.03 10^3/μL
same,lymphocytes absolute,[2]; [5],1.18 ± 0.08 10^3/μL
same,lymphocytes relative,[2]; [5],29.5 ± 1.7%
same,monocytes absolute,[2]; [5],0.52 ± 0.08 10^3/μL
same,monocytes relative,[2]; [5],10.7 ± 0.6%
same,neutrophils absolute,[2]; [5],2.41 ± 0.19 10^3/μL
same,neutrophils relative,[2]; [5],55.3 ± 1.4%
same,platelet count,[2]; [5],206 ± 14 10^3/μL
same,MPV,[2]; [6],10.7 ± 0.2* fL
same,basophils relative,[2]; [6],1.3 ± 0.2* %
same,eosinophils relative,[2]; [6],2.9 ± 0.5* %
same,Difference between treatment conditions for hematology,[2]; NR vs placebo,No meaningful differences
same,All clinical laboratory values versus normal reference range,"[2]; all clinical laboratory values (Tables 3-5), NR condition",remained within the normal reference range
same,Relevance of changes in mean platelet volume and relative distribution of white blood cell types,"[2]; statistically significant difference between conditions, extremely low effect sizes",physiologically insignificant
same,ALT (SGPT),[3]; [5],30.8 ± 2.4 IU/L
same,AST (SGOT),[3]; [5],32.1 ± 1.5 IU/L
same,BUN,[3]; [5],17 ± 1 mg/dL
same,CO2,[3]; [5],26 ± 1 mEq/L
same,albumin,[3]; [5],3.6 ± 0.1 g/dL
same,alk phosphatase,[3]; [5],63.4 ± 2.9 IU/L
same,calcium,[3]; [5],9.2 ± 0.1 mg/dL
same,chloride,[3]; [5],104 ± 1 mEq/L
same,creatinine,[3]; [5],0.9 ± 0.03 mg/dL
same,eGFR,[3]; [5],74 ± 3 ml/min/1.73 m^2
same,glucose,[3]; [5],87 ± 1 mg/dL
same,potassium,[3]; [5],4.2 ± 0.1 mEq/L
same,sodium,[3]; [5],139 ± 1 mEq/L
same,total bilirubin,[3]; [5],0.8 ± 0.1 mg/dL
same,total protein,[3]; [5],6.3 ± 0.1 g/dL
same,Difference between treatment conditions for blood chemistry (including markers of renal function and liver enzymes),[3]; NR vs placebo,No meaningful differences
same,Mean arterial blood pressure,[4]; all subjects,moderately lowered
same,Resting diastolic blood pressure,[4]; [7],significantly reduced
same,Resting systolic blood pressure,[4]; [7],significantly reduced
same,"Pre-hypertension, hypertension, and arterial stiffness","[4]; human subjects, 500 mg twice daily, within 6 weeks or less",significant improvements
same,Blood pressure,[4]; normotensive individuals,no effect
same,Lowering of systolic blood pressure compared with placebo,[4]; [8],8 mmHg
same,Mean (arterial) pressure,[4]; [8],significant reduction
same,Reduction of diastolic blood pressure,"[4]; prehypertensive individuals, P=0.09",3 mmHg
